# Measured values taken from PubChem BioAssay (NCI).
#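 How tested: cells in 96-well plates exposed to compound for 48 hours at five concentrations. GI50 = concentration required for 50% inhibition of growth. At the TGI there is no net growth.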
# How the values were obtained:
# Test in all cases: NCI-60 cell line screen, 48 h
# K-562 leukemia = system: K-562 leukemia
# SNB-75 CNS = system: SNB-75 CNS
# TK-10 renal = system: TK-10 renal
# HT29 colon = system: HT29 colon
# NCI-H522 lung = system: NCI-H522 lung
# SF-268 CNS = system: SF-268 CNS
# SNB-19 CNS = system: SNB-19 CNS
# HCC-2998 colon = system: HCC-2998 colon
# NCI-H226 lung = system: NCI-H226 lung
# CAKI-1 renal = system: CAKI-1 renal
# SN12C renal = system: SN12C renal
# SF-539 CNS = system: SF-539 CNS
# HL-60(TB) leukemia = system: HL-60(TB) leukemia
# IGROV1 ovarian = system: IGROV1 ovarian
# T-47D breast = system: T-47D breast
# MOLT-4 leukemia = system: MOLT-4 leukemia
# OVCAR-3 ovarian = system: OVCAR-3 ovarian
# SK-MEL-28 melanoma = system: SK-MEL-28 melanoma
# UACC-62 melanoma = system: UACC-62 melanoma
# COLO 205 colon = system: COLO 205 colon
# HS 578T breast = system: HS 578T breast
# OVCAR-8 ovarian = system: OVCAR-8 ovarian
# NCI/ADR-RES ovarian = system: NCI/ADR-RES ovarian
# SW-620 colon = system: SW-620 colon
# 786-0 renal = system: 786-0 renal
# SK-MEL-5 melanoma = system: SK-MEL-5 melanoma
# MCF7 breast = system: MCF7 breast
# A549 NSCLC = system: A549 NSCLC
# A498 renal = system: A498 renal
# BT-549 breast = system: BT-549 breast
# OVCAR-5 ovarian = system: OVCAR-5 ovarian
# HOP-92 NSCLC = system: HOP-92 NSCLC
# SK-OV-3 ovarian = system: SK-OV-3 ovarian
# LOX IMVI melanoma = system: LOX IMVI melanoma
# NCI-H460 lung = system: NCI-H460 lung
# RXF 393 renal = system: RXF 393 renal
# M14 melanoma = system: M14 melanoma
# SF-295 CNS = system: SF-295 CNS
# OVCAR-4 ovarian = system: OVCAR-4 ovarian
# MALME-3M melanoma = system: MALME-3M melanoma
# UACC-257 melanoma = system: UACC-257 melanoma
# ACHN renal = system: ACHN renal
# SR leukemia = system: SR leukemia
# EKVX NSCLC = system: EKVX NSCLC
# UO-31 renal = system: UO-31 renal
# PC-3 prostate = system: PC-3 prostate
# NCI-H23 lung = system: NCI-H23 lung
# U251 CNS = system: U251 CNS
# DU-145 prostate = system: DU-145 prostate
# MDA-MB-231 breast = system: MDA-MB-231 breast
# KM12 colon = system: KM12 colon
# HCT-116 colon = system: HCT-116 colon
# SK-MEL-2 melanoma = system: SK-MEL-2 melanoma
# MDA-MB-435 = system: MDA-MB-435
# RPMI-8226 leukemia = system: RPMI-8226 leukemia
# HOP-62 NSCLC = system: HOP-62 NSCLC
# HCT-15 colon = system: HCT-15 colon
# CCRF-CEM leukemia = system: CCRF-CEM leukemia
smiles,measurement,setting,value
CC(=O)C1=C(C)N(c2ccc(C)cc2)C2(O)C3=C(C(=O)c4ccccc4C3=O)C(O)=CC12Cl (stereo not given),TGI,K-562 leukemia,> 100 µM
same,TGI,SNB-75 CNS,> 100 µM
same,TGI,TK-10 renal,97 µM
same,TGI,HT29 colon,60.1 µM
same,TGI,NCI-H522 lung,33.2 µM
same,TGI,SF-268 CNS,> 100 µM
same,TGI,SNB-19 CNS,35.8 µM
same,TGI,HCC-2998 colon,31.6 µM
same,TGI,NCI-H226 lung,> 100 µM
same,TGI,CAKI-1 renal,87.1 µM
same,TGI,SN12C renal,57.9 µM
same,TGI,SF-539 CNS,> 100 µM
same,TGI,HL-60(TB) leukemia,> 100 µM
same,TGI,IGROV1 ovarian,52.6 µM
same,TGI,T-47D breast,69.1 µM
same,TGI,MOLT-4 leukemia,> 100 µM
same,TGI,OVCAR-3 ovarian,45 µM
same,TGI,SK-MEL-28 melanoma,79.4 µM
same,TGI,UACC-62 melanoma,26.5 µM
same,TGI,COLO 205 colon,63.9 µM
same,TGI,HS 578T breast,> 100 µM
same,TGI,OVCAR-8 ovarian,53.4 µM
same,TGI,NCI/ADR-RES ovarian,28.3 µM
same,TGI,SW-620 colon,> 100 µM
same,TGI,786-0 renal,> 100 µM
same,TGI,SK-MEL-5 melanoma,22.2 µM
same,TGI,MCF7 breast,> 100 µM
same,TGI,A549 NSCLC,> 100 µM
same,TGI,A498 renal,10.3 µM
same,TGI,BT-549 breast,45.9 µM
same,TGI,OVCAR-5 ovarian,71.6 µM
same,TGI,HOP-92 NSCLC,> 100 µM
same,TGI,SK-OV-3 ovarian,> 100 µM
same,TGI,LOX IMVI melanoma,> 100 µM
same,TGI,NCI-H460 lung,> 100 µM
same,TGI,RXF 393 renal,50.8 µM
same,TGI,M14 melanoma,> 100 µM
same,TGI,SF-295 CNS,37.3 µM
same,TGI,OVCAR-4 ovarian,> 100 µM
same,TGI,MALME-3M melanoma,36.5 µM
same,TGI,UACC-257 melanoma,55.6 µM
same,TGI,ACHN renal,> 100 µM
same,TGI,SR leukemia,> 100 µM
same,TGI,EKVX NSCLC,> 100 µM
same,TGI,UO-31 renal,34.6 µM
same,TGI,PC-3 prostate,> 100 µM
same,TGI,NCI-H23 lung,34 µM
same,TGI,U251 CNS,> 100 µM
same,TGI,DU-145 prostate,> 100 µM
same,TGI,MDA-MB-231 breast,> 100 µM
same,TGI,KM12 colon,33.8 µM
same,TGI,HCT-116 colon,> 100 µM
same,TGI,SK-MEL-2 melanoma,33 µM
same,TGI,MDA-MB-435,14.3 µM
same,TGI,RPMI-8226 leukemia,> 100 µM
same,TGI,HOP-62 NSCLC,> 100 µM
same,TGI,HCT-15 colon,> 100 µM
Oc1cc2ccccc2c(-c2c(O)c(O)cc3ccccc23)c1O,GI50,K-562 leukemia,0.0738 µM
same,GI50,SNB-75 CNS,2.23 µM
same,TGI,SNB-75 CNS,28.1 µM
same,GI50,TK-10 renal,1.38 µM
same,TGI,TK-10 renal,30.9 µM
same,GI50,HT29 colon,3.95 µM
same,TGI,HT29 colon,25.3 µM
same,GI50,NCI-H522 lung,2.31 µM
same,TGI,NCI-H522 lung,21 µM
same,GI50,SF-268 CNS,1.88 µM
same,TGI,SF-268 CNS,23.3 µM
same,GI50,SNB-19 CNS,2.75 µM
same,TGI,SNB-19 CNS,27.8 µM
same,GI50,HCC-2998 colon,0.506 µM
same,TGI,HCC-2998 colon,2.61 µM
same,GI50,NCI-H226 lung,3.83 µM
same,TGI,NCI-H226 lung,26.6 µM
same,GI50,CAKI-1 renal,0.852 µM
same,TGI,CAKI-1 renal,6.55 µM
same,GI50,SN12C renal,1.99 µM
same,TGI,SN12C renal,15.8 µM
same,GI50,SF-539 CNS,1.68 µM
same,TGI,SF-539 CNS,5.46 µM
same,GI50,HL-60(TB) leukemia,1.59 µM
same,TGI,HL-60(TB) leukemia,> 20.6 µM
same,GI50,IGROV1 ovarian,0.273 µM
same,TGI,IGROV1 ovarian,3.4 µM
same,GI50,T-47D breast,0.319 µM
same,TGI,T-47D breast,14.5 µM
same,GI50,MOLT-4 leukemia,0.897 µM
same,TGI,MOLT-4 leukemia,18.7 µM
same,GI50,OVCAR-3 ovarian,0.825 µM
same,TGI,OVCAR-3 ovarian,17.9 µM
same,GI50,SK-MEL-28 melanoma,3.37 µM
same,TGI,SK-MEL-28 melanoma,20.7 µM
same,GI50,UACC-62 melanoma,1.26 µM
same,TGI,UACC-62 melanoma,4.23 µM
same,GI50,COLO 205 colon,2.06 µM
same,TGI,COLO 205 colon,8.95 µM
same,GI50,HS 578T breast,2.9 µM
same,TGI,HS 578T breast,> 44.1 µM
same,GI50,OVCAR-8 ovarian,2.16 µM
same,TGI,OVCAR-8 ovarian,> 24 µM
same,GI50,NCI/ADR-RES ovarian,1.83 µM
same,TGI,NCI/ADR-RES ovarian,12.4 µM
same,GI50,SW-620 colon,3.49 µM
same,TGI,SW-620 colon,26.9 µM
same,GI50,786-0 renal,0.201 µM
same,TGI,786-0 renal,1.07 µM
same,GI50,SK-MEL-5 melanoma,1.1 µM
same,TGI,SK-MEL-5 melanoma,4.49 µM
same,GI50,MCF7 breast,0.228 µM
same,TGI,MCF7 breast,13 µM
same,GI50,A549 NSCLC,0.41 µM
same,TGI,A549 NSCLC,19.3 µM
same,GI50,A498 renal,1.14 µM
same,TGI,A498 renal,10.5 µM
same,GI50,BT-549 breast,4.17 µM
same,TGI,BT-549 breast,27.8 µM
same,GI50,CCRF-CEM leukemia,0.554 µM
same,TGI,CCRF-CEM leukemia,> 27.7 µM
same,GI50,OVCAR-5 ovarian,4.54 µM
same,TGI,OVCAR-5 ovarian,24.1 µM
same,GI50,HOP-92 NSCLC,1.87 µM
same,TGI,HOP-92 NSCLC,16.3 µM
same,GI50,SK-OV-3 ovarian,1.68 µM
same,TGI,SK-OV-3 ovarian,17.3 µM
same,GI50,LOX IMVI melanoma,0.939 µM
same,TGI,LOX IMVI melanoma,8.57 µM
same,GI50,NCI-H460 lung,0.145 µM
same,TGI,NCI-H460 lung,2.78 µM
same,GI50,M14 melanoma,1.4 µM
same,TGI,M14 melanoma,11.4 µM
same,GI50,SF-295 CNS,0.77 µM
same,TGI,SF-295 CNS,> 29.6 µM
same,GI50,OVCAR-4 ovarian,2.3 µM
same,TGI,OVCAR-4 ovarian,34.3 µM
same,GI50,MALME-3M melanoma,3.85 µM
same,TGI,MALME-3M melanoma,21.4 µM
same,GI50,UACC-257 melanoma,3.24 µM
same,TGI,UACC-257 melanoma,24.3 µM
same,GI50,ACHN renal,0.571 µM
same,TGI,ACHN renal,21.1 µM
same,GI50,SR leukemia,0.912 µM
same,TGI,SR leukemia,> 100 µM
same,GI50,EKVX NSCLC,1.87 µM
same,TGI,EKVX NSCLC,> 44.4 µM
same,GI50,UO-31 renal,0.512 µM
same,TGI,UO-31 renal,6.41 µM
same,GI50,PC-3 prostate,2.17 µM
same,TGI,PC-3 prostate,> 52.2 µM
same,GI50,NCI-H23 lung,0.703 µM
same,TGI,NCI-H23 lung,15.4 µM
same,GI50,U251 CNS,1.32 µM
same,TGI,U251 CNS,20.3 µM
same,GI50,DU-145 prostate,2.29 µM
same,TGI,DU-145 prostate,15.4 µM
same,GI50,MDA-MB-231 breast,4.64 µM
same,TGI,MDA-MB-231 breast,34.2 µM
same,GI50,KM12 colon,2.81 µM
same,TGI,KM12 colon,17.4 µM
same,GI50,HCT-116 colon,0.427 µM
same,TGI,HCT-116 colon,11.9 µM
same,GI50,SK-MEL-2 melanoma,2.74 µM
same,TGI,SK-MEL-2 melanoma,15.5 µM
same,GI50,MDA-MB-435,1.17 µM
same,TGI,MDA-MB-435,12.4 µM
same,GI50,RPMI-8226 leukemia,0.743 µM
same,TGI,RPMI-8226 leukemia,> 28.2 µM
same,GI50,HOP-62 NSCLC,1.03 µM
same,TGI,HOP-62 NSCLC,8.39 µM
same,GI50,HCT-15 colon,0.323 µM
same,TGI,HCT-15 colon,14.8 µM
